Measurements taken from patent publication US9108930B2, “N1- and N2-carbamoyl-1,2,3-triazole serine hydrolase inhibitors and methods” (The Scripps Research Institute, priority 2011, dated 2015).

Experiments:
peritoneal macrophages = assay: Metabolomics of thioglycolate-elicited peritoneal macrophages from treated mice; format: in vivo, mouse; settings: 5 mg/kg, 4 hours, i.p.
Procedure: Mice were treated with KT109, KT172 or KT195 (5 mg/kg, 4 hours, i.p.) to evaluate whether blockade of DAGLB in peritoneal macrophages would result in metabolic effects similar to those observed in Neuro2A cells. Thioglycolate-elicited peritoneal macrophages were harvested, and the cells were subjected to metabolomics studies. […] All the metabolic effects observed in pharmacological studies were recapitulated using Daglb^−/− mice, providing genetic evidence that the changes were indeed DAGLB-mediated.
(§1) Metabolites were quantified by either selected reaction monitoring (SRM) of each metabolite using an Agilent G6410B Triple-Quad instrument or untargeted metabolomic analysis (substrate assays) using an Agilent 1100 series LC-MSD SL instrument. […] For analysis of diacylglycerols (DAGs) a Luna C5 column (50 mm×4.60 mm with 5 μm diameter particles) from Phenomenex was used. Mobile phase A was made of 95:5 v/v H2O:MeOH, and mobile phase B was composed of 60:35:5 v/v/v i-PrOH:MeOH:H2O. Ammonium hydroxide (0.1%) and formic acid (0.1%) was included to assist in ion formation in negative and positive ionization modes, respectively. For analysis of DAGs, 5 mM ammonium formate was also used in addition to 0.1% formic acid to assist in positive ionization and NH4+ adduct formation. For metabolite measurements, cells were resuspended in 1 mL of a 1% NaCl solution and added to 3 mL of a 2:1 v/v CHCl3:MeOH doped with 1 nmol of the following internal standards: d5-2-arachidonoylglycerol (2-AG), d8-arachidonic acid (AA), and d8-1-stearoyl-2-arachidonoylglycerol (SAG). The mixture was vortexed and then centrifuged (1,400×g, 3 min). The organic layer was removed, CHCl3 was added until the final volume was again 4 ml, and the extraction was repeated. The combined organic extracts were dried under a stream of N2 and resolubilized in 2:1 v/v CHCl3:MeOH (120 μl). 30 μL of resolubilized lipids were injected for positive mode (MAGs and DAGs) and negative mode (free fatty acids and eicosanoids) measurements.
(§2) The following parameters (MS) were used to measure the indicated metabolites by SRM (precursor ion, product ion, collision energy in V, polarity): C20:4 MAG or 2-AG (379, 287, 8, positive), d5-2-AG (384, 287, 5, positive), C18:0/C20:4 DAG or SAG (662, 341, 15, positive), d8-SAG (671, 671, 0, positive), C18:1/C20:4 DAG (660, 341, 15, positive), C16:0/C20:4 DAG (634, 341, 15, positive), C14:0/C20:4 DAG (606, 341, 15, positive), arachidonic acid or AA (303, 303, 0, negative), d8-AA (311, 267, 5, negative), PGE2 (351, 271, 10, negative), and PGD2 (351, 271, 10, negative). MS analysis was performed with an electrospray ionization source with the following parameters: drying gas temperature=350° C., drying gas flow rate=11 L/min, and the nebulizer pressure=35 psi. Prostaglandin SRM parameters were based on previously reported methods and transitions. Metabolites targeted by SRM were quantified by measuring the area under the peak in comparison with the internal standards. For metabolites where isotopic internal standards were not used, external standard curves with the internal standard versus metabolite standard were generated. In DAGL substrate assays, formation of the hydrolysis product, 2-AG was followed by measuring the area under the peak for 2-AG in comparison to the 1-monopentadecanoin standard ion.

[1] = tested on: peritoneal macrophages of Pla2g4a-/- mice; assay: LPS-stimulated TNF-alpha release, macrophages from treated Pla2g4a-/- mice; format: in vivo, mouse; settings: 5 mg/kg, 4 hours, i.p.
Procedure: Next, the cytokine profiles from a Pla2g4a^+/+ background were compared with the profiles from Pla2g4a^−/− mice treated with KT109 or KT195 (5 mg/kg, 4 hours, i.p.). […] However, no significant differences in LPS-stimulated TNF-alpha levels were observed from Pla2g4a^+/+ versus […].

DAGLB [2] = molecular target: T1, DAGLB (Mus musculus, UniProt Q91WC9); assay: Gel-based ABPP assay against recombinant DAGLB (HEK293T-DAGLB lysates); format: biochemical; design: Full-length cDNAs encoding serine hydrolases were purchased from Open Biosystems; V5; host or cells: HEK293T; settings: recombinant
T1 sequence (Q91WC9 1-669): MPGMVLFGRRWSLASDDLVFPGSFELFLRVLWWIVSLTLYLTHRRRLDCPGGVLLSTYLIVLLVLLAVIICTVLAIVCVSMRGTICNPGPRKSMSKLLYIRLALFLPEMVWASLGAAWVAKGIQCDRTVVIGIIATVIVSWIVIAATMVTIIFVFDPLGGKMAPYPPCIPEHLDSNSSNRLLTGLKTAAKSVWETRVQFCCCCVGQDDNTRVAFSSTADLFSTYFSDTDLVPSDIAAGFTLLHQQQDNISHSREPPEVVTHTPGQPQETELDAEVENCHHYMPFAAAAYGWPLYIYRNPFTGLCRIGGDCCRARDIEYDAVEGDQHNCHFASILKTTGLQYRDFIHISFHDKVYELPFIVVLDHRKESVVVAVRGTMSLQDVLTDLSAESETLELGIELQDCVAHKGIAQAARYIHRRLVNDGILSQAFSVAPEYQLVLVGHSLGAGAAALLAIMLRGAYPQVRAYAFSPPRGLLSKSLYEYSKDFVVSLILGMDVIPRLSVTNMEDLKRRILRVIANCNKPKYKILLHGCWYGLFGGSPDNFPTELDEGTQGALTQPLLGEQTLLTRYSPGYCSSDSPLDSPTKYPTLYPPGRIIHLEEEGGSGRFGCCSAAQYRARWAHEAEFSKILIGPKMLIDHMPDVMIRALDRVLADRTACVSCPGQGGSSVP

[3] = tested on: serine hydrolases in mouse brain proteome; assay: Selectivity profile by competitive ABPP (mouse brain proteome), DAGL series; format: biochemical
[4] = tested on: peritoneal macrophages of Pla2g4a-/- mice; assay: Metabolomics of macrophages from treated Pla2g4a-/- mice; format: in vivo, mouse; settings: 5 mg/kg, 4 hours, i.p.
Procedure: Pla2g4a^−/− mice were treated with KT109 or KT195 (5 mg/kg, 4 hours, i.p.), thioglycolate-elicited macrophages were harvested, and then the macrophages were subjected to metabolomics analysis. The cellular levels of PGE2 and PGD2 were measured.
as §1
as §2, with “For metabolites where isotopic internal standards were not used, external standard curves with the internal standard versus metabolite standard were generated. In DAGL substrate assays, formation of the hydrolysis product, 2-AG was followed by measuring the area under the peak for 2-AG in comparison to the 1-monopentadecanoin standard ion.” left out

[5] = tested on: serine hydrolases in the peritoneal macrophage proteome; assay: ABPP-MudPIT of peritoneal macrophages from treated mice, off-targets; settings: mouse, in vivo
DAGLB [6] = molecular target: T1, DAGLB; assay: ABPP-MudPIT of peritoneal macrophages from treated mice; settings: in vivo

Row | SMILES | change in 2-AG (peritoneal macrophages) | change in SAG (peritoneal macrophages) | change in cellular AA, PGE2 and PGD2 (peritoneal macrophages) | increase of TNF-alpha levels upon LPS stimulation [1] | activity against DAGLB (DAGLB [2]) | off-target activity / selectivity against other serine hydrolases [3] | PGD2 level [4] | change in PGE2 [4] | off-target activities [5] | DAGLB inhibition by spectral counting (DAGLB [6]) | effect on TNF-alpha levels upon LPS stimulation [1]
1 | O=C(N1CCCCC1Cc1ccccc1)n1cc(-c2ccc(-c3ccccc3)cc2)nn1 (stereo not shown) [KT109] | Dramatic decreases in 2-AG | significant increases in SAG | significant decreases in cellular AA levels and a corresponding reduction in PGE2 and PGD2 | 2 fold | maintaining comparable potencies against DAGLB | improved selectivity against FAAH, MGLL, and ABHD11 | remained undetectable | significant decrease in PGE2 | carboxylesterases (Ces3 and Ces2g) | confirmed inhibition of DAGLB | 
2 | COc1ccc(-c2ccc(-c3cn(C(=O)N4CCCCC4c4ccccc4)nn3)cc2)cc1 (stereo not shown) [KT195] | no observable changes |  | None of these effects were observed |  | negligible activity against DAGLB at micromolar concentrations | completely inactivated ABHD6 | remained undetectable | not observed | also inhibited | no activity against DAGLB | no observable effects
